Read-outs that look alike come from different tables or passages of the source.
Biological target: N-type calcium channel (α1B (Cav2.2), β3 and α2δ subunits) (Homo sapiens, UniProt Q00975)
Assay: Functional Assay: Antagonism of N-Type Calcium Channel (FDSS calcium mobilization, KCl depolarization)
Assay type: cell-based
Experimental: A stable cell line (HEK parent) co-expressing the α1B (Cav2.2), β3 and α2δ subunits of the N-type calcium channel subunits was used. These cells were routinely grown as monolayers in low glucose-containing Dulbecco's Modified Eagle Medium supplemented with 10% FBS, 2 mM L-glutamine, 100 I.U./mL penicillin, 100 μg/mL streptomycin, 400 μg/mL G418 and 200 μg/mL Zeocin (split ratio=1:5). Cells were maintained in 5% CO2 at 37° C. Compounds of Formula (I) were prepared as 10 mM stocks in DMSO from neat compound, if available. Otherwise, the 5 or 10 mM DMSO stock solutions provided in-house were used.
Calcium mobilization responses to KCl depolarization were evaluated by measuring the intensity of calcium-mediated fluorescent signal in the presence of BD Calcium Assay Dye (BD Biosciences, Franklin Lakes, N.J., U.S.A.), utilizing a Functional Drug Screening System (FDSS) by Hamamatsu Corporation (Bridgewater, N.J. U.S.A.).
Twenty-four hr prior to assay, cells were seeded in clear-base poly-D-lysine-coated 384-well plates (BD Biosciences) at a density of 5,000 cells per well in culture medium and grown overnight in 5% CO2 at 37° C. On the day of assay, growth media were removed, and cells were loaded with BD calcium assay dye (BD Biosciences) for 35 min at 37° C. under 5% CO2 and then for 25 min at room temp. Utilizing the FDSS, cells were exposed to representative compounds of Formula (I) at varying concentrations, and intracellular calcium was measured for 5 min prior to the addition of 50 mM KCl for an additional 3 min of measurement.
Calculations and Formulas
IC50 values for representative compounds of Formula (I) were determined from six-point concentration-response experiments and represent the concentration of said compound required to inhibit 50% of the maximal response. Maximal fluorescence intensity (FI) achieved upon addition of 50 mM KCl was exported from the FDSS software and further analyzed using GraphPad Prism 3.02 (Graph Pad Software Inc., San Diego, Calif., U.S.A.). Data were normalized to the maximum average counts from quadruplicate wells for each condition in the presence of 50 mM KCl and to the minimum average counts in the presence of buffer. Theoretical curves were generated using nonlinear regression curve-fitting analysis of either sigmoidal concentration-response or sigmoidal concentration-response (variable slope), and the IC50 values with the best-fit curve determined by GraphPad Prism were reported.

[1] = HEK cell line, 50 mM KCl depolarization, six-point concentration-response, read-out: FDSS IC50

Sequence of N-type calcium channel (α1B (Cav2.2), β3 and α2δ subunits) (Q00975 whole entry): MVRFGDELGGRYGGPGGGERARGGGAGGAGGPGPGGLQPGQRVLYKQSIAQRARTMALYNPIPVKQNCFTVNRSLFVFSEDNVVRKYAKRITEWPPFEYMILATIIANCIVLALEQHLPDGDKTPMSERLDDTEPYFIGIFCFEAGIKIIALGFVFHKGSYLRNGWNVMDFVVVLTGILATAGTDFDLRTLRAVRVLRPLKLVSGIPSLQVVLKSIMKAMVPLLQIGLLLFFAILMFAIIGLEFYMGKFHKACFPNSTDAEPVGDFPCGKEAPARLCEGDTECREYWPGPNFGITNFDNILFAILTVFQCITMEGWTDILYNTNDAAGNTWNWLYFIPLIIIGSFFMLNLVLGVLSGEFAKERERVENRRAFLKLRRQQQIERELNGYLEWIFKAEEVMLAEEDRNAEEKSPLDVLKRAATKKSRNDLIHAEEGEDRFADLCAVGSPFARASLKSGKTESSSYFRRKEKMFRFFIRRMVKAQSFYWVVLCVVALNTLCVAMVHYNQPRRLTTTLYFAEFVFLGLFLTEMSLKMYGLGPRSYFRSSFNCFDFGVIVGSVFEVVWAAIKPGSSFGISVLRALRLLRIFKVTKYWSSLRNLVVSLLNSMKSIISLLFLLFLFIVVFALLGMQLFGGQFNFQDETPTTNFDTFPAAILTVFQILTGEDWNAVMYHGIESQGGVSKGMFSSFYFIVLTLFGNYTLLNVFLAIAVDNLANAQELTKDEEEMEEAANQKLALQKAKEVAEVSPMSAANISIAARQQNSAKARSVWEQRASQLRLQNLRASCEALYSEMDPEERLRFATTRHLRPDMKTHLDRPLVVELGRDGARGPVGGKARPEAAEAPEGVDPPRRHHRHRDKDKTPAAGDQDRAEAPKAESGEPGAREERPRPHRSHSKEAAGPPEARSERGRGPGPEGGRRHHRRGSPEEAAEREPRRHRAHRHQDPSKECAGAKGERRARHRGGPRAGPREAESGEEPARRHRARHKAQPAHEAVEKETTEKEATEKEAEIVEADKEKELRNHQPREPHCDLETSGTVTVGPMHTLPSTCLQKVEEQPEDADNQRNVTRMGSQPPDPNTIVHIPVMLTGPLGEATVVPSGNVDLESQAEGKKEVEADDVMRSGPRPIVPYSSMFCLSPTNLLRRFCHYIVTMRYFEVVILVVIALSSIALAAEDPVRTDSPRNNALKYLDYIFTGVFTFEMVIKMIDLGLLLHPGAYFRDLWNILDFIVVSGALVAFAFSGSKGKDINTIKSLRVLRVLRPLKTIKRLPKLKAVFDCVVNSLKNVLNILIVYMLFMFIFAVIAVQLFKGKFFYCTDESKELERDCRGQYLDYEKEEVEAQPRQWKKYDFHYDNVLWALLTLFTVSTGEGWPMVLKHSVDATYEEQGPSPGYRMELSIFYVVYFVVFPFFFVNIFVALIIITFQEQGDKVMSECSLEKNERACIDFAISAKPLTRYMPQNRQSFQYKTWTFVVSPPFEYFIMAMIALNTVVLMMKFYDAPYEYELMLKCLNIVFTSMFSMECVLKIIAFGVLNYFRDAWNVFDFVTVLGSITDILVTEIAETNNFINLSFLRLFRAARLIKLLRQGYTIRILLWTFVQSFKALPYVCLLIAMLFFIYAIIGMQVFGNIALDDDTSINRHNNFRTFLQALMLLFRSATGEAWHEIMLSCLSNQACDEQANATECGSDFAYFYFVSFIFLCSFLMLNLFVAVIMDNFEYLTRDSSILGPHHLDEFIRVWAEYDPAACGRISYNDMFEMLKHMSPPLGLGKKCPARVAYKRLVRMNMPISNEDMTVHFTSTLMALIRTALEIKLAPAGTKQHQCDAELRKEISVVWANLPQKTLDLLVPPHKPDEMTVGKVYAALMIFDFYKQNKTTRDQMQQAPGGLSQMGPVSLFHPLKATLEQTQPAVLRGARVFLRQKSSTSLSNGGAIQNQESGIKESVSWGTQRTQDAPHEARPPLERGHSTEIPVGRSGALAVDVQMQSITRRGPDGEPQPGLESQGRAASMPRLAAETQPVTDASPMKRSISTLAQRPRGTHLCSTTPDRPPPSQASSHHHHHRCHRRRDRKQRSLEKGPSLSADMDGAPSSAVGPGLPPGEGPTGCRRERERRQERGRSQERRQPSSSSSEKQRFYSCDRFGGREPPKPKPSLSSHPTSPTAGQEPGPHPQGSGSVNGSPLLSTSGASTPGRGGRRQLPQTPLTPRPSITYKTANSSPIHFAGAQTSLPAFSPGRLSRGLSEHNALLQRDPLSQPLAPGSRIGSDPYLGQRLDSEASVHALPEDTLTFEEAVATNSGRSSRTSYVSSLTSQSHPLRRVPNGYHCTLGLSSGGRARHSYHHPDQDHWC
Sequence of N-type calcium channel (α1B (Cav2.2), β3 and α2δ subunits) (P54284 whole entry partner): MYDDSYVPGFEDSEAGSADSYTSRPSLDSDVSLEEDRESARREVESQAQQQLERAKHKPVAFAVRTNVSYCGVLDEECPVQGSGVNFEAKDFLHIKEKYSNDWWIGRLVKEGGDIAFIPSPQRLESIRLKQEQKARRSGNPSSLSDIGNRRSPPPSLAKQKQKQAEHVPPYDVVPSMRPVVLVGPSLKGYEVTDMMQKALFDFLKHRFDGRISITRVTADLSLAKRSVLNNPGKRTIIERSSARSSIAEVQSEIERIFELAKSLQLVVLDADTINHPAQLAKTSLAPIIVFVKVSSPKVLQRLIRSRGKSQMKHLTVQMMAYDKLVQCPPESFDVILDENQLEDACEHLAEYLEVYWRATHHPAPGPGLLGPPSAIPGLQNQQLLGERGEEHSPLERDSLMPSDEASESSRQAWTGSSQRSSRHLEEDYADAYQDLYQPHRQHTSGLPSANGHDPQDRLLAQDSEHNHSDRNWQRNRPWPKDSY
Sequence of N-type calcium channel (α1B (Cav2.2), β3 and α2δ subunits) (P54289 25-946 partner limits assumed): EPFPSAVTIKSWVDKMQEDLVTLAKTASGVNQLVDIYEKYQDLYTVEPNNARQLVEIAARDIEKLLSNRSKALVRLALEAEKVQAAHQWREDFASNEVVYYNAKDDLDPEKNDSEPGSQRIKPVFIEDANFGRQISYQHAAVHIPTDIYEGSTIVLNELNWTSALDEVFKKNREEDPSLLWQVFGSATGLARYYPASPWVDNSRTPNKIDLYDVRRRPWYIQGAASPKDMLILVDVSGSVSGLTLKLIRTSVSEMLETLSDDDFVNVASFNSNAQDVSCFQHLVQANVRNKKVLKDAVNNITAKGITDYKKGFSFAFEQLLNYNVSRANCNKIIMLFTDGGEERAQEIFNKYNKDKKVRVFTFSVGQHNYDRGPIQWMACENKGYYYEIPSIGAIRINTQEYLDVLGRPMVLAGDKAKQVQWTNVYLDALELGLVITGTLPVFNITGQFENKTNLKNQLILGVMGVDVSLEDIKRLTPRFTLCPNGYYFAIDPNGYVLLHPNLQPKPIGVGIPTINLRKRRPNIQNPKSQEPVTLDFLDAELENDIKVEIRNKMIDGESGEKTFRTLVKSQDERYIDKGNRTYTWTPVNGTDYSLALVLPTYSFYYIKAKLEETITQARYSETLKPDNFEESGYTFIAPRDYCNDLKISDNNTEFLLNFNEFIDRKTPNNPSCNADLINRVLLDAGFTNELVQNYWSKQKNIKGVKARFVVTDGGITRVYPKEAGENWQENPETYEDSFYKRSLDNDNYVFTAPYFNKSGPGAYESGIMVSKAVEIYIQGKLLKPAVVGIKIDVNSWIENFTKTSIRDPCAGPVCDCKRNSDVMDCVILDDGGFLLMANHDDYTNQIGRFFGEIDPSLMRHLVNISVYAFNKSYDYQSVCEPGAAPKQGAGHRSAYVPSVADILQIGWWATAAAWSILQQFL
Sequence of N-type calcium channel (α1B (Cav2.2), β3 and α2δ subunits) (P54289 947-1103 partner limits assumed): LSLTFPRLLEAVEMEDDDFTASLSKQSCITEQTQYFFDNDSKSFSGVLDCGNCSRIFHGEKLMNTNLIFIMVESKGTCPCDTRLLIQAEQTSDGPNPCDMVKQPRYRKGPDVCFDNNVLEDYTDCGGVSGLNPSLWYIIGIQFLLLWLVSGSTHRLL

inhibition at 0.33 µM (0.33 μM)	IC50 [1]	SMILES	inhibition at 0.33 µM	IC50 (FDSS IC50)
62%	280 nM	COc1ccccc1-n1nc2c(c1-c1ccc(Cl)cc1)CC(c1ccc(OC(C)C)nc1)C2 (stereo not shown) [Compound 60, 3-(4-chlorophenyl)-2-(2-methoxyphenyl)-5-[6-(1-methylethoxy)pyridin-3-yl]-2,4,5,6-tetrahydrocyclopenta[c]pyrazole]		
77%	98 nM	COc1ccccc1-n1nc2c(c1-c1ccc(Cl)cc1)C[C@@H](Oc1ccccn1)C2 [Compound 61, (5R)-3-(4-chlorophenyl)-2-(2-methoxyphenyl)-5-(pyridin-2-yloxy)-2,4,5,6-tetrahydrocyclopenta[c]pyrazole]		
42%		COc1ccccc1-n1nc2c(c1-c1ccc(Cl)cc1)CC(c1ccc(N3CCOCC3)nc1)C2 (stereo not shown) [Compound 62, 3-(4-chlorophenyl)-2-(2-methoxyphenyl)-5-(6-morpholin-4-ylpyridin-3-yl)-2,4,5,6-tetrahydrocyclopenta[c]pyrazole]		
66%	280 nM	COc1ccccc1-n1nc2c(c1-c1ccc(Cl)cc1)CC(C1CCC(C)(C)CC1)C2 (stereo not shown) [Compound 64, 3-(4-chlorophenyl)-5-(4,4-dimethylcyclohexyl)-2-(2-methoxyphenyl)-2,4,5,6-tetrahydrocyclopenta[c]pyrazole]		
59%	280 nM	COc1ccccc1-n1nc2c(c1-c1ccc(Cl)cc1)CC(C1CNc3ccccc3C1)C2 (stereo not shown) [Compound 65, 3-[3-(4-chlorophenyl)-2-(2-methoxyphenyl)-2,4,5,6-tetrahydrocyclopenta[c]pyrazol-5-yl]-1,2,3,4-tetrahydroquinoline]		
79%	66 nM	CCOC(=O)c1cncc(C2Cc3nn(-c4ccccc4OC)c(-c4ccc(Cl)cc4)c3C2)c1 (stereo not shown) [Compound 66, Ethyl 5-[3-(4-chlorophenyl)-2-(2-methoxyphenyl)-2,4,5,6-tetrahydrocyclopenta[c]pyrazol-5-yl]pyridine-3-carboxylate]		
81%	86 nM	COc1ccccc1-n1nc2c(c1-c1ccc(Cl)cc1)CC(c1ccc(C)nc1)C2 (stereo not shown) [Compound 73, 3-(4-chlorophenyl)-2-(2-methoxyphenyl)-5-(6-methylpyridin-3-yl)-2,4,5,6-tetrahydrocyclopenta[c]pyrazole]		
61%	150 nM	CCOc1ccc(C2Cc3nn(-c4ccccc4OC)c(-c4ccc(Cl)cc4)c3C2)cn1 (stereo not shown) [Compound 74, 3-(4-chlorophenyl)-5-(6-ethoxypyridin-3-yl)-2-(2-methoxyphenyl)-2,4,5,6-tetrahydrocyclopenta[c]pyrazole]		
53%	230 nM	COc1ccccc1-n1nc2c(c1-c1ccc(Cl)cc1)CC(c1ccc(C(C)C)nc1Cl)C2 (stereo not shown) [Compound 75, 5-[2-Chloro-6-(1-methylethyl)pyridin-3-yl]-3-(4-chlorophenyl)-2-(2-methoxyphenyl)-2,4,5,6-tetrahydrocyclopenta[c]pyrazole]		
81%	62 nM	COc1ccccc1-n1nc2c(c1-c1ccc(Cl)cc1)CC(c1ccc(C3CC3)nc1)C2 (stereo not shown) [Compound 77, 3-(4-chlorophenyl)-5-(6-cyclopropylpyridin-3-yl)-2-(2-methoxyphenyl)-2,4,5,6-tetrahydrocyclopenta[c]pyrazole]		
		COc1ccccc1-n1nc2c(c1-c1ccc(Cl)cc1)C[C@H](OCC1CCCCC1)C2 [Compound 82, (5S)-3-(4-chlorophenyl)-5-(cyclohexylmethoxy)-2-(2-methoxyphenyl)-2,4,5,6-tetrahydrocyclopenta[c]pyrazole]	76%	130 nM
		COc1ccccc1-n1nc2c(c1-c1ccc(Cl)cc1)C[C@H](OCC1CCC1)C2 [Compound 84, (5S)-3-(4-chlorophenyl)-5-(cyclobutylmethoxy)-2-(2-methoxyphenyl)-2,4,5,6-tetrahydrocyclopenta[c]pyrazole]	80%	
82%	82 nM	COc1ccccc1-n1nc2c(c1-c1ccc(Cl)cc1)C[C@H](OC(=O)C1CCOCC1)C2 [Compound 86, (5S)-3-(4-chlorophenyl)-2-(2-methoxyphenyl)-2,4,5,6-tetrahydrocyclopenta[c]pyrazol-5-yl tetrahydro-2H-pyran-4-carboxylate]		
82%	92 nM	COc1ccccc1-n1nc2c(c1-c1ccc(Cl)cc1)C[C@H](OCC1CCOCC1)C2 [Compound 87, (5S)-3-(4-chlorophenyl)-2-(2-methoxyphenyl)-5-(tetrahydro-2H-pyran-4-ylmethoxy)-2,4,5,6-tetrahydrocyclopenta[c]pyrazole]		
		COc1ccccc1-n1nc2c(c1-c1ccc(Cl)cc1)CC(C(C)C)C2 (stereo not shown) [Compound 92, 3-(4-chlorophenyl)-2-(2-methoxyphenyl)-5-(1-methylethyl)-2,4,5,6-tetrahydrocyclopenta[c]pyrazole]	43%	
81%	60 nM	CCOc1ccc(-c2c3c(nn2-c2ccccc2OC)CC2(C3)OCC(C)(C)CO2)cn1 [Compound 94, 3-(6-ethoxypyridin-3-yl)-2-(2-methoxyphenyl)-5′,5′-dimethyl-2,6-dihydro-4H-spiro[cyclopenta[c]pyrazole-5,2′-[1,3]dioxane]]		
67%	110 nM	COc1ccccc1-n1nc2c(c1-c1ccc(C)nc1)CC1(C2)OCC(C)(C)CO1 [Compound 95, 2-(2-methoxyphenyl)-5′,5′-dimethyl-3-(6-methylpyridin-3-yl)-2,6-dihydro-4H-spiro[cyclopenta[c]pyrazole-5,2′-[1,3]dioxane]]		
61%	140 nM	COc1ccccc1-n1nc2c(c1-c1ccc(Cl)cc1)CC(C1CCCCC1)C2 (stereo not shown) [Compound 104, 3-(4-chlorophenyl)-5-cyclohexyl-2-(2-methoxyphenyl)-2,4,5,6-tetrahydrocyclopenta[c]pyrazole]		
64%	270 nM	COc1ccccc1-n1nc2c(c1-c1ccc(C#N)cc1)CC(CC1CCCCC1)C2 (stereo not shown) [Compound 106, 4-[5-(cyclohexylmethyl)-2-(2-methoxyphenyl)-2,4,5,6-tetrahydrocyclopenta[c]pyrazol-3-yl]benzonitrile]		
77%	48 nM	COc1ccccc1-n1nc2c(c1-c1ccc(Cl)cc1)CC(N1CC(C)OC(C)C1)C2 (stereo not shown) [Compound 116, 3-(4-chlorophenyl)-5-(2,6-dimethylmorpholin-4-yl)-2-(2-methoxyphenyl)-2,4,5,6-tetrahydrocyclopenta[c]pyrazole]		
75%	44 nM	COc1ccccc1-n1nc2c(c1-c1ccc(Cl)cc1)CC(N1CCC(C)CC1)C2 (stereo not shown) [Compound 117, 3-(4-chlorophenyl)-2-(2-methoxyphenyl)-5-(4-methylpiperidin-1-yl)-2,4,5,6-tetrahydrocyclopenta[c]pyrazole]		
76%	46 nM	CCC1(CC)CCN(C2Cc3nn(-c4ccccc4OC)c(-c4ccc(Cl)cc4)c3C2)C1 (stereo not shown) [Compound 118, 3-(4-chlorophenyl)-5-(3,3-diethylpyrrolidin-1-yl)-2-(2-methoxyphenyl)-2,4,5,6-tetrahydrocyclopenta[c]pyrazole]		
76%	84 nM	COc1ccccc1-n1nc2c(c1-c1ccc(Cl)cc1)CC(N1CCC(C)(C)C1)C2 (stereo not shown) [Compound 119, 3-(4-chlorophenyl)-5-(3,3-dimethylpyrrolidin-1-yl)-2-(2-methoxyphenyl)-2,4,5,6-tetrahydrocyclopenta[c]pyrazole]		
78%	91 nM	COc1ccccc1-n1nc2c(c1-c1ccc(Cl)s1)CC1(C2)OCC(C)(C)CO1 [Compound 120, 3-(5-chlorothiophen-2-yl)-2-(2-methoxyphenyl)-5′,5′-dimethyl-2,6-dihydro-4H-spiro[cyclopenta[c]pyrazole-5,2′-[1,3]dioxane]]		

SMILES	inhibition at 0.33 µM (0.33 μM)	IC50 [1]	inhibition at 0.33 µM	IC50 (FDSS IC50)
CCC(CC)CO[C@@H]1Cc2nn(-c3ccccc3OC)c(-c3ccc(Cl)cc3)c2C1 [Compound 72, (5S)-3-(4-chlorophenyl)-5-(2-ethylbutoxy)-2-(2-methoxyphenyl)-2,4,5,6-tetrahydrocyclopenta[c]pyrazole]	78%	61 nM		
COc1ccccc1-n1nc2c(c1-c1ccc(Cl)cc1)C[C@H](OCC1CCCC1)C2 [Compound 83, (5S)-3-(4-chlorophenyl)-5-(cyclopentylmethoxy)-2-(2-methoxyphenyl)-2,4,5,6-tetrahydrocyclopenta[c]pyrazole]		49 nM	92%	

Source: US8853418B2, “Cyclopentylpyrazoles as N-type calcium channel blockers” (Janssen Pharmaceutica NV, priority 2012, dated 2014)
